Measured values published in ChEMBL document CHEMBL1139630, “Structure-activity relationship of N-methyl-bisindolylmaleimide derivatives as cell death inhibitors” (Bioorg Med Chem Lett, 2005).

Tests used:
[1] = biological target: Ribosomal protein S6 kinase alpha-5 (Homo sapiens) (UniProt O75582); experiment: Residual activity of MSK-1 kinase (MSK1) at 50 uM
[2] = biological target: T1, Ribosomal protein S6 kinase beta-1 (Homo sapiens, UniProt P23443); settings: 50 uM
Target sequence in this assay (P23443 whole entry, looked up): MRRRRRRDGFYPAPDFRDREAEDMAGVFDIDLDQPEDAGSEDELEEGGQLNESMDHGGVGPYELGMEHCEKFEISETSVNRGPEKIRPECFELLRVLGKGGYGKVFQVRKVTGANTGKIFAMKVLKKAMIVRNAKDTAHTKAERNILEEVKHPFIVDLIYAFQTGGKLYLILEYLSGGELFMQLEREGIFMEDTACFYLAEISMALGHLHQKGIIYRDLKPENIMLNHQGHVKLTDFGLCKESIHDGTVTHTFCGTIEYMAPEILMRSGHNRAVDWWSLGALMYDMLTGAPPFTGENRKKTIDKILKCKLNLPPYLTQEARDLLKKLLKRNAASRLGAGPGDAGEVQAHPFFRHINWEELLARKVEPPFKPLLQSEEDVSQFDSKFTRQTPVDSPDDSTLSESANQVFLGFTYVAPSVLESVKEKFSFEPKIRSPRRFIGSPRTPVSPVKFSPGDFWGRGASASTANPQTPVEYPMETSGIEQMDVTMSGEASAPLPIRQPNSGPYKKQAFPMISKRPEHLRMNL
Description: Inhibition of Ribosomal protein S6 kinase 1 (S6K1) at 50 uM

[3] = biological target: Ribosomal protein S6 kinase alpha-3 (Homo sapiens) (UniProt P51812); experiment: Residual activity of Ribosomal S6 kinase 2 (RSK2) at 50 uM
Chain of Ribosomal protein S6 kinase alpha-3 (Homo sapiens) (P51812 whole entry): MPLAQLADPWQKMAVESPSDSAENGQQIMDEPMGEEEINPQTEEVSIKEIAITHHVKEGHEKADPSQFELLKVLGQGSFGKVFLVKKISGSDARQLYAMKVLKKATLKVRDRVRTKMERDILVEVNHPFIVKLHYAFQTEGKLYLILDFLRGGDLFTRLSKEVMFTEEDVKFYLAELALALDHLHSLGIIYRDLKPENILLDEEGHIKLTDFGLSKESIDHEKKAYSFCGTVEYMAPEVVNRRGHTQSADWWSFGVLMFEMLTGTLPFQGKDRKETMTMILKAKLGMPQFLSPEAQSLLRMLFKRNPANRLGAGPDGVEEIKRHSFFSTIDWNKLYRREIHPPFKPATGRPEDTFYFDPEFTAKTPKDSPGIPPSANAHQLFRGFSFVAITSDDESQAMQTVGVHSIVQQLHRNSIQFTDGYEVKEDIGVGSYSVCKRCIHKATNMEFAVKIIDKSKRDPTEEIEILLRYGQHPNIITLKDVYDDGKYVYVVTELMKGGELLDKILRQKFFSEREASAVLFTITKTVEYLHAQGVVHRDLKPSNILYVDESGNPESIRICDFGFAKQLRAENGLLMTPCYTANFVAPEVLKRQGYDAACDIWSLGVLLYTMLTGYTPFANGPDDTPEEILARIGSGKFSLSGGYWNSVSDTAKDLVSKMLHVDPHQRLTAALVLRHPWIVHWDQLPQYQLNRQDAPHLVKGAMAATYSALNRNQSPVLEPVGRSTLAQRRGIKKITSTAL

[4] = biological target: T2, AMP-activated protein kinase, AMPK (Homo sapiens) (UniProt P54646+O43741+P54619+Q9UGJ0+Q9Y478+Q13131+Q9UGI9); experiment: Residual activity of AMP-activated Protein Kinase (AMPK) at 50 uM
[5] = biological target: T3, Serine/threonine-protein kinase Sgk1 (Homo sapiens) (UniProt O00141); experiment: Residual activity of Serum/glucocorticoid regulated kinase (SGK) at 50 uM
T3 sequence (whole entry): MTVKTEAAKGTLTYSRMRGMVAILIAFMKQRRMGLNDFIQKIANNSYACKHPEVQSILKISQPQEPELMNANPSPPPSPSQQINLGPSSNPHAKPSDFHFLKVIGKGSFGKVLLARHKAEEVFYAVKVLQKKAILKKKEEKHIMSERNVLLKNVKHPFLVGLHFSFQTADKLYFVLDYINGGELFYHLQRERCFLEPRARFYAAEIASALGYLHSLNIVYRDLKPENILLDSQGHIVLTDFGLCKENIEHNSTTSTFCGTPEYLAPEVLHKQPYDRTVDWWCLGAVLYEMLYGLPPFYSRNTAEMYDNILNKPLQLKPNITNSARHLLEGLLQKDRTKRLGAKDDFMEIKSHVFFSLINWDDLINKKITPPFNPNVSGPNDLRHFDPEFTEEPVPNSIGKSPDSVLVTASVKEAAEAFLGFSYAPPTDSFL

[6] = biological target: T4, Serine/threonine-protein kinase Chk1 (Homo sapiens) (UniProt O14757); experiment: Residual activity of Serine/threonine-protein kinase Chk1 (CHK1) at 50 uM
T4 sequence (whole entry): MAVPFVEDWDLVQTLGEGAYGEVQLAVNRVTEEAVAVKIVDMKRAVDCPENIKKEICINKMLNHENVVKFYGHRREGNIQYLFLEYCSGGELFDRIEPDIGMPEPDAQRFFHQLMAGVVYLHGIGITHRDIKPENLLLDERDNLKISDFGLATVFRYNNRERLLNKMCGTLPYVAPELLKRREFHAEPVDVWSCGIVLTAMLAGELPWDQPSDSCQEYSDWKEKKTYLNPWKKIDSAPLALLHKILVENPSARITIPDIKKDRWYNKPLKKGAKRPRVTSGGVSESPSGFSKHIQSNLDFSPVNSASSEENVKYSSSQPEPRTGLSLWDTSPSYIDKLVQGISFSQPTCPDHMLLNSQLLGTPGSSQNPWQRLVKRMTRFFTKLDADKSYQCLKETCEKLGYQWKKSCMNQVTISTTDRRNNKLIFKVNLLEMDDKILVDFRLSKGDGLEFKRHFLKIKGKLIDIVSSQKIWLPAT

[7] = biological target: Glycogen synthase kinase-3 beta (Homo sapiens) (UniProt P49841); experiment: Residual activity of Glycogen synthase kinase-3 beta (GSK3-beta) at 50 uM
Chain of Glycogen synthase kinase-3 beta (Homo sapiens) (P49841 whole entry, looked up): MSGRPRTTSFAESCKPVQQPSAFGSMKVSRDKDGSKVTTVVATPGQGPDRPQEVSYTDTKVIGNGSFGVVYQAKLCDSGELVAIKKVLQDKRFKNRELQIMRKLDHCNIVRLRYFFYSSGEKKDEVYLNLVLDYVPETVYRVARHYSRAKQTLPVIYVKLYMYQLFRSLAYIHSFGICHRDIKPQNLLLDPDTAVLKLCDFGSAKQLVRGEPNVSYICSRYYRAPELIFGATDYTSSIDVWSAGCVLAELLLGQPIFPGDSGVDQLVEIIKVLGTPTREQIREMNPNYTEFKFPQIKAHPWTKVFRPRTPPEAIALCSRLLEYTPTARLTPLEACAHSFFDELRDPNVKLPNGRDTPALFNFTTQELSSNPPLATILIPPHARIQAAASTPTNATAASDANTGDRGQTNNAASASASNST

[8] = biological target: Protein kinase C alpha type (Homo sapiens) (UniProt P17252); experiment: Residual activity of Protein kinase C alpha (PKCalpha) at 50 uM
[9] = biological target: T1, Ribosomal protein S6 kinase beta-1; experiment: Inhibition of Ribosomal protein S6 kinase 1 (S6K1)
Target sequence in this assay (P23443 whole entry): as the sequence (P23443 whole entry, looked up) above

[10] = biological target: T2, AMP-activated protein kinase, AMPK (Homo sapiens); experiment: Residual activity of AMP-activated Protein Kinase (AMPK) at 1 uM
[11] = biological target: Ribosomal protein S6 kinase alpha-3 (Homo sapiens) (UniProt P51812); experiment: Residual activity of Ribosomal S6 kinase 2 (RSK2) at 1 uM

Chain of Ribosomal protein S6 kinase alpha-5 (Homo sapiens) (O75582 whole entry, looked up): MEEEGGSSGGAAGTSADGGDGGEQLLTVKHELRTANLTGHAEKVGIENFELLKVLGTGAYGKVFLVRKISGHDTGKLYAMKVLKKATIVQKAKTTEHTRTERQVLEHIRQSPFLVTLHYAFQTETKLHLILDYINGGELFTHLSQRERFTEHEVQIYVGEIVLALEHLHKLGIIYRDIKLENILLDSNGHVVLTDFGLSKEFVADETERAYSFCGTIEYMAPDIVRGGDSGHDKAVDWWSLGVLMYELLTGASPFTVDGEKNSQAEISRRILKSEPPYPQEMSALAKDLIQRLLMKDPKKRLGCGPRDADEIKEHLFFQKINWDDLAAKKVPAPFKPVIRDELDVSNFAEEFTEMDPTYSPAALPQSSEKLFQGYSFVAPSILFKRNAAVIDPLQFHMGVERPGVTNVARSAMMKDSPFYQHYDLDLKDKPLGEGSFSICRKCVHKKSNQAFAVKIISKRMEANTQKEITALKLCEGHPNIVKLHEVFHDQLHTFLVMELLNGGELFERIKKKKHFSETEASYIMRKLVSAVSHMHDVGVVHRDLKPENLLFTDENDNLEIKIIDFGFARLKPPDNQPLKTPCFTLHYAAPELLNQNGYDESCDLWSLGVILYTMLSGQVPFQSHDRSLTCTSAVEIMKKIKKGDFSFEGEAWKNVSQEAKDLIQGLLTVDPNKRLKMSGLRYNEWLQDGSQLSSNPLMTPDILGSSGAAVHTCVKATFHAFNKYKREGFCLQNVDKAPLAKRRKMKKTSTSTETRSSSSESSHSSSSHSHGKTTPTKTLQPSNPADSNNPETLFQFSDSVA

Row | SMILES | residual activity [1] [%] | residual activity [2] [%] | residual activity [3] [%] | residual activity [4] [%] | residual activity [5] [%] | residual activity [6] [%] | residual activity [7] [%] | residual activity [8] [%] | IC50 [9] [µM] | residual activity [10] [%] | residual activity [11] [%]
1 | CN1C(=O)C(c2c[nH]c3ccccc23)=C(c2cn(CCCN)c3ccccc23)C1=O | 90 | 28 | 106 | 88 | 109 | 93 | 94 | 66 | 25 | – | –
2 | CN(C)CCCn1cc(C2=C(c3c[nH]c4ccccc34)C(=O)NC2=O)c2ccccc21 | – | – | – | – | – | – | – | – | – | 54 | 9
